Results taken from patent US20100286092A1, “BETA-LACTAMASE INHIBITORS” (priority 2007, published 2010).

How the values were obtained:
Conditions in all cases: in the presence of a fixed amount (8 μg/mL) of Ceftazidime; CAMHB, 16-20 hours at 37° C.
[1] = test system: E. cloacae expressing the Class C P99+; assay type: cell-based
Text: (§1) To determine the ability of test compounds to potentiate the inhibition of the growth of bacterial strains producing beta-lactamase enzymes, classic cell based screening assays were employed. Four bacteria strains producing beta-lactamase enzymes were used: K. pneumoniae expressing the Class A Extended Spectrum Beta-Lactamase (ESBL) CTX-M-15, E. coli expressing the Class A ESBL SHV-5, E. cloacae expressing the Class C P99+, and K. pneumoniae expressing the Class A carbapenemase KPC-2. In order to evaluate the ability of test compounds to inhibit beta-lactamase activity, Applicants used a modification of the broth microdilution assay. The assay was conducted in Cation Adjusted Mueller Hinton Broth (CAMHB, BD #212322, BD Diagnostic Systems, Sparks, Md.). Bacteria strains were grown for 3-5 hours in CAMBH broth. All four strains were grown in presence of 50 μg/mL ampicillin to ensure resistance is maintained. In the meantime, test compounds were diluted in DMSO to a 0.1 mg/mL stock. The compounds were added to a microtiter plate and were diluted in 2-fold serial dilutions in CAMHB in a final concentration range of 8 μg/mL to 0.015 μg/ml. An overlay of CAMHB containing a cephalosporin was added to the compounds at a final static concentration of 8 μg/ml. […] Each of these compound plates are made in quadruplicate, one for each bacteria strain. In addition to the titration of test compounds the MICs of a panel of cephalosporins is also tested to ensure the strains are behaving consistently from test to test. Once the test compound and cephalosporin are added the plates can be inoculated. Inocula are conducted according to CLSI broth microdilution method. After inoculation the plates are incubated for 16-20 hours at 37° C. then the Minimal Inhibitory Concentration (MIC) of the test compound is determined visually.
(§2) Using the methodology described above, examples of the current invention were evaluated for their ability to inhibit the growth of β-lactamase producing bacteria in the presence of a β-lactam antibiotic. […] NT=Not Tested.

[2] = test system: K. pneumoniae expressing the Class A carbapenemase KPC-2
Text: as §1, §2

[3] = test system: K. pneumoniae expressing the Class A Extended Spectrum Beta-Lactamase (ESBL) CTX-M-15; assay type: cell-based
Text: as §1, §2

| Compound | MIC of example compound, E. cloacae P99 AmpC + 8 μg/mL CAZ [1] | MIC of example compound, K. pneumoniae KPC-2 + 8 μg/mL CAZ [2] | MIC of example compound, K. pneumoniae CTX-M-15 + 8 μg/mL CAZ [3] |
| --- | --- | --- | --- |
| O=C(Cc1cccs1)N[C@@H](Cc1ccc(C(=O)O)cc1O)B(O)O [Example 2, (1R)-1-(2-thiophene-2-yl-acetylamino)-2-(2-hydroxy-4-carboxyphenyl)ethyl-1-boronic acid] | A (A represents an MIC>8 μg/mL) |  |  |
| O=C(Cc1cccc(O)c1)N[C@@H](Cc1cccc(C(=O)O)c1O)B(O)O [Example 3, (1R)-1-(3-hydroxy-phenyl)acetylamino-1-(3-carboxy-2-hydroxy)benzyl-methyl boronic acid] |  | C (C represents an MIC of <1 μg/mL) | C (C represents an MIC of <1 μg/mL) |
| O=C(CCC(=O)c1cccs1)N[C@@H](Cc1cccc(C(=O)O)c1O)B(O)O [Example 5, (1R)-1-(4-oxo-4-thiophen-2-yl-butyrylamino)-2-(2-hydroxy-3-carboxyphenyl)ethyl-1-boronic acid] | C (C represents an MIC of <1 μg/mL) | C (C represents an MIC of <1 μg/mL) | C (C represents an MIC of <1 μg/mL) |
| CC(=O)N[C@@H](Cc1cccc(C(=O)O)c1O)B(O)O [Example 6, (1R)-1-(2-acetylamino)-2-(2-hydroxy-3-carboxyphenyl)ethyl-1-boronic acid] |  | C (C represents an MIC of <1 μg/mL) | C (C represents an MIC of <1 μg/mL) |
| NC(=O)COc1cccc(CC(=O)N[C@@H](Cc2cccc(C(=O)O)c2O)B(O)O)c1 [Example 8, (1R)-1-[(3-carbamoylmethoxy)-phenyl]-acetylamino-(3-carboxy-2-hydroxy)benzyl-methylboronic acid] |  | C (C represents an MIC of <1 μg/mL) | C (C represents an MIC of <1 μg/mL) |
| O=C(N[C@@H](Cc1cccc(C(=O)O)c1O)B(O)O)c1cccs1 [Example 11, (1R)-1-(thiophene-2-carbonyl-amino)-2-(2-hydroxy-3-carboxyphenyl)ethyl-1-boronic acid] | C (C represents an MIC of <1 μg/mL) | C (C represents an MIC of <1 μg/mL) | C (C represents an MIC of <1 μg/mL) |
| N[C@H](C(=O)N[C@@H](Cc1cccc(C(=O)O)c1O)B(O)O)c1ccccc1.O=CO [Example 12, (1R,2′S)-1-(2-amino-2-phenylacetylamino)-2-(2-hydroxy-3-carboxyphenyl)ethyl-1-boronic acid formate salt] |  | C (C represents an MIC of <1 μg/mL) | C (C represents an MIC of <1 μg/mL) |
| O=C(N[C@@H](Cc1cccc(C(=O)O)c1O)B(O)O)c1ccccc1 [Example 13, (1R)-1-Benzoylamino-1-(3-carboxy-2-hydroxy)benzyl-methylboronic acid] | C (C represents an MIC of <1 μg/mL) | C (C represents an MIC of <1 μg/mL) | C (C represents an MIC of <1 μg/mL) |
| CC(C)C(=O)N[C@@H](Cc1cccc(C(=O)O)c1O)B(O)O [Example 14, (1R)-1-Isobutyrylamino-1-(3-carboxy-2-hydroxy)benzyl-methylboronic acid] | C (C represents an MIC of <1 μg/mL) | C (C represents an MIC of <1 μg/mL) | C (C represents an MIC of <1 μg/mL) |
| O=C(O)c1cccc(C[C@H](NC(=O)C2CCCC2)B(O)O)c1O [Example 15, (1R)-1-Cyclopentanecarbonylamino-(3-carboxy-2-hydroxy)benzyl-methylboronic acid] | C (C represents an MIC of <1 μg/mL) | C (C represents an MIC of <1 μg/mL) | C (C represents an MIC of <1 μg/mL) |
| O=C(Cc1cc(O)ccc1O)N[C@@H](Cc1cccc(C(=O)O)c1O)B(O)O [Example 18, (1R)-1-(2-(2,5-dihydroxyphenyl)acetylamino)-2-(2-hydroxy-3-carboxyphenyl)ethyl-1-boronic acid] |  |  | C (C represents an MIC of <1 μg/mL) |
| O=C(COCc1ccccc1)N[C@@H](Cc1cccc(C(=O)O)c1O)B(O)O [Example 22, (1R)-1-(2-benzyloxyacetylamino)-2-(2-hydroxy-3-carboxyphenyl)ethyl-1-boronic acid] |  | C (C represents an MIC of <1 μg/mL) | C (C represents an MIC of <1 μg/mL) |
| CCCCCCC(=O)N[C@@H](Cc1cccc(C(=O)O)c1O)B(O)O [Example 24, (1R)-1-(heptanoylamino)-2-(2-hydroxy-3-carboxyphenyl)ethyl-1-boronic acid] |  | C (C represents an MIC of <1 μg/mL) | C (C represents an MIC of <1 μg/mL) |
| CC(C)(C)CC(=O)N[C@@H](Cc1cccc(C(=O)O)c1O)B(O)O [Example 25, (1R)-1-(3,3-Dimethyl-butyrylamino)-(3-carboxy-2-hydroxy)benzyl-methylboronic acid] |  | C (C represents an MIC of <1 μg/mL) | C (C represents an MIC of <1 μg/mL) |
| O=C(O)c1cccc(C[C@H](NC(=O)c2cccc3ccccc23)B(O)O)c1O [Example 27, (1R)-1-(1-naphthoylamino)-2-(2-hydroxy-3-carboxyphenyl)ethyl-1-boronic acid] |  | C (C represents an MIC of <1 μg/mL) |  |
| O=C(N[C@@H](Cc1cccc(C(=O)O)c1O)B(O)O)c1cccc(O)c1 [Example 28, (1R)-1-(3-hydroxybenzoylamino)-2-(2-hydroxy-3-carboxyphenyl)ethyl-1-boronic acid] |  | C (C represents an MIC of <1 μg/mL) | C (C represents an MIC of <1 μg/mL) |
| Cc1ccccc1C(=O)N[C@@H](Cc1cccc(C(=O)O)c1O)B(O)O [Example 30, (1R)-1-(2-methylbenzoylamino)-2-(2-hydroxy-3-carboxyphenyl)ethyl-1-boronic acid] |  | C (C represents an MIC of <1 μg/mL) |  |
| O=C(N[C@@H](Cc1cccc(C(=O)O)c1O)B(O)O)c1ccc(Cl)nc1 [Example 31, (1R)-1-(6-Chloro-pyridine-3-carbonyl)-amino-1-(3-carboxy-2-hydroxy)benzyl-methylboronic acid] |  | C (C represents an MIC of <1 μg/mL) | C (C represents an MIC of <1 μg/mL) |
| O=C(N[C@@H](Cc1cccc(C(=O)O)c1O)B(O)O)c1ccc(Cl)cc1 [Example 32, (1R)-1-(4-Chloro-benzoyl)-amino-1-(3-carboxy-2-hydroxy)benzyl-methylboronic acid] |  | C (C represents an MIC of <1 μg/mL) |  |
| COc1ccc(C(=O)N[C@@H](Cc2cccc(C(=O)O)c2O)B(O)O)cc1 [Example 33, (1R)-1-(4-Methoxybenzoyl)-amino-1-(3-carboxy-2-hydroxy)benzyl-methylboronic acid] |  | C (C represents an MIC of <1 μg/mL) |  |
| O=C(N[C@@H](Cc1cccc(C(=O)O)c1O)B(O)O)c1ccccc1O [Example 35, (1R)-1-(2-hydroxybenzoylamino)-2-(2-hydroxy-3-carboxyphenyl)ethyl-1-boronic acid] |  | C (C represents an MIC of <1 μg/mL) |  |
| O=C(Cn1cccn1)N[C@@H](Cc1cccc(C(=O)O)c1O)B(O)O [Example 40, (1R)-1-(Pyrazol-1-yl-acetylamino)-2-(2-hydroxy-3-carboxyphenyl)ethyl-1-boronic acid] |  | C (C represents an MIC of <1 μg/mL) | C (C represents an MIC of <1 μg/mL) |
| NCc1cccc(C(=O)N[C@@H](Cc2cccc(C(=O)O)c2O)B(O)O)c1.O=CO [Example 42, (1R)-1-(3-aminomethyl)-benzoylamino-1-(3-carboxy-2-hydroxy)benzyl-methyl boronic acid formate] | C (C represents an MIC of <1 μg/mL) | C (C represents an MIC of <1 μg/mL) |  |
| O=C(CN1C(=O)c2ccccc2C1=O)N[C@@H](Cc1cccc(C(=O)O)c1O)B(O)O [Example 45, (1R)-1-(2-(1,3-dioxoisoindolin-2-yl)acetylamino)-2-(2-hydroxy-3-carboxyphenyl)ethyl-1-boronic acid] |  | C (C represents an MIC of <1 μg/mL) |  |
